# Measured values published in patent US10159678B2, “Methods to decrease susceptibility to asthmatic bronchoconstriction” (Cornell University, priority 2012, dated 2018).
# Assays:
# [1] = system: lung sphingolipid composition; assay: Lung sphingolipid composition by UPLC-MS/MS after intranasal myriocin; format: in vivo, BALB/c mice
# Method: (§1) Animal studies described herein were conducted under protocols approved by the Institutional Animal Care and Use Committee of Weill Cornell Medical College. Female BALB/c mice, obtained from Taconic Farms (Tarrytown, N.Y.). Animals were housed under specific pathogen-free conditions and used at 6 to 8 weeks of age. Myriocin (Enzo Life Sciences, Plymouth Meeting, Pa.) was freshly prepared from a 10 mM stock solution to a 1 mM or 100 μM solution in 0.9% saline and 0.05% fatty acid free bovine serum albumin and 50 μl were administered intranasally. Control animals received the vehicle solution (1% DMSO in 0.9% saline, […] BSA) or were naïve. Three hours later the animals underwent pulmonary function testing and were sacrificed. Heterozygous SPT-deficient mice (Sptlc2^+/−) or homozygous controls (Sptlc2^+/+) were bred, identified by genotyping using procedures like those described by Hojjati et al. (2005) and used at 6-8 weeks of age.
# Lungs were harvested following perfusion with phosphate-buffered saline (PBS, Invitrogen, Carlsbad, Calif.) containing 0.6 mM ethylenediamine tetra acetic acid dipotassium salt dehydrate (EDTA, Invitrogen) via the right ventricle to remove blood cells from the pulmonary circulation. The lungs were then homogenized in normal PBS. De-novo sphingolipid synthesis was assessed by evaluating incorporation of ^3H-serine (24.1 Ci/mmol, Perkin Elmer (Boston, Mass.) into ceramide and sphingosine. Sphingolipid synthesis through the recycling pathway was assessed by evaluating incorporation of ^3H-sphingosine (18.2 Ci/mmol, Perkin Elmer (Boston, Mass.) into ceramide and sphingomyelin. In both assays, equal amounts of fresh lung homogenates were incubated for 30 min at 37° C. with 2 μl of the radioactive tracer, followed by lyophilization to determine dry weight, lipid extraction with chloroform/methanol/water (1:1:0.9). The organic phase was evaporated, dissolved in 50 μl chloroform/methanol (1:1) spotted on […] chromatography plates (TLC) (Merck Silica gel 60, Darmstadt, Germany) and chromatographed for 25 min with chloroform-methanol-ammonium hydroxide (65:25:4 v/v). Ceramides, sphingomyelin, phosphatidylserine, sphinganine and sphingosine, all dissolved at 1 μg/μl were run as standards. The lipids were identified according to their Rf values after visualization in an iodine vapor tank. The TLC plate was cut at the corresponding lipid spot, mixed with scintillation fluid (Ultima Gold, Packard Instrument Company, CT) and analyzed in a scintillation counter (Perkin Elmer Wallac, Gaithersburg, Md.). Results are calculated as dpm/mg protein.
# Sphinganine, sphingosine, sphinganine-1-phosphate, sphingosine-1-phosphate, ceramides (Cer16, Cer18, Cer20, Cer22, Cer24:1, Cer24) were quantified in lung homogenates by ultra-performance liquid chromatography-tandem mass spectrometry (UPLC-MS/MS), on a Waters Xevo, equipped with a Waters BEH Phenyl UPLC Column (ACQUITY UPLC BEH Phenyl Column, 3.0×100 mm, 1.7 μm and a ACQUITY BEH Phenyl VanGuard Pre-column, 2.1×5 mm, 1.7 μm in the Columbia University Lipid Core as reported by Shaner et al. (2009) with minor modifications. […] of an internal standard mix (Avanti Polar Lipids, Mix 1) in ethanol, 0.5 ml methanol and 0.25 ml chloroform were added to the lyophilized lung homogenates and sonicated for 12 h at 48° C. After centrifugation at 10,000 g for 5 min, the supernatant was evaporated in a glass tube and resuspended in 100 μl methanol. 10 μl were injected into the UPLC-MS/MS. Results are calculated as pmol/mg.
# Myriocin is a potent and specific inhibitor of SPT that affects SPT independent of orm. To assess if direct administration of myriocin to the respiratory tract affects pulmonary sphingolipid synthesis, the lung sphingolipid composition was determined by ultra-performance liquid chromatography-tandem mass spectrometry (UPLC-MS/MS) 3 h following intranasal administration of myriocin.
# [2] = system: ORMDL1, ORMDL2 and ORMDL3 mRNA; assay: ORMDL1, 2 and 3 mRNA expression in lung tissue (RealTime RT-PCR); format: in vivo, mice; conditions: 20 μg myriocin; FIG. 2H
# Method: RNA was extracted from lungs using TRIzol (Invitrogen). Following reverse transcription of 3 μg RNA, ORMDL1, 2 and 3 mRNAs were amplified using the following primers and probes (Roche Applied Science): RNA levels were quantified using the ΔΔCt method and normalized to expression of murine ribosomal 18s (4310893E, Applied Biosystems). To assess if ORMDL expression was altered with decreased activity of SPT, mRNA expression of ORMDL1, 2 and 3 in lung tissue was analyzed following myriocin treatment and in the Sptlc2^+/− mice. Expression of ORMDL1, 2 or 3 was not affected by myriocin (FIG. 2H) or by genetic SPT deficiency (FIG. 2I).
# BALB/c mice = assay: Lung mechanics and airway reactivity to inhaled methacholine after intranasal myriocin; format: in vivo; conditions: 3 h after intranasal myriocin (2 or 20 μg)
# Method: as §1, with “Three hours later the animals underwent pulmonary function testing and were sacrificed. Heterozygous SPT-deficient mice (Sptlc2^+/−) or homozygous controls (Sptlc2^+/+) were bred, identified by genotyping using procedures like those described by Hojjati et al. (2005) and used at 6-8 weeks of age.” left out
# Mice were anaesthetized with pentobarbital (100 mg/kg; American Pharmaceutical Partners, Los Angeles, Calif.), tracheostomized and mechanically ventilated at a rate of 150 breaths/min, a tidal volume of 10 ml/kg and positive end-expiratory pressure of 2-3 cm H2O using a computer-controlled animal ventilator (Sireq, Montreal, Canada). […] Rn and G were also assessed following increasing doses of methacholine (3.125, 12.5 and 50 mg/ml).
# Experiments were then performed to assess if administration of myriocin directly to the respiratory tract affects pulmonary function. […] Airway resistance (Rn) in response to increasing doses of inhaled methacholine was determined 3 h after myriocin administration. […]
# Muc5ac = assay: Mucus production (PAS stain, Muc5ac mRNA) after myriocin; format: in vivo; conditions: myriocin-treated mice
# Excerpt: Lung sections were stained with periodic acid-Schiff stain (PAS) and analyzed by light microscopy. Expression of MUC5ac (Mm01276735) was quantified by TaqMan RealTime RT-PCR as described above.
structure (smiles),measurement,setting,value
CCCCCCC(=O)CCCCCC/C=C/C[C@@H](O)[C@H](O)[C@@](N)(CO)C(=O)O [myriocin],sphinganine in the lung,"[1]; 3 h following intranasal administration of myriocin (20 μg), FIG. 1A",reduced
same,sphingosine levels in the lung,"[1]; 3 h following intranasal myriocin (20 μg), FIG. 1B",not significantly decreased
same,sphinganine-1P (Sa1P) levels in the lung,"[1]; 3 h following intranasal myriocin (20 μg), FIG. 1C",not significantly decreased
same,sphingosine-1P (S1P) levels in the lung,"[1]; 3 h following intranasal myriocin (20 μg), FIG. 1D",not significantly decreased
same,"sum of ceramides (C14, C16, C18, C20, C22, C24, C24:1) in the lung","[1]; 3 h following intranasal myriocin (20 μg), FIG. 1E-1G",decreased
same,certain individual ceramides in the lung,"[1]; 3 h following intranasal myriocin, FIGS. 1F and 1G",individually decreased
same,"Expression of ORMDL1, 2 or 3 in lung tissue",[2],not affected
same,airway reactivity (airway resistance Rn in response to inhaled methacholine),BALB/c mice; FIG. 3A,increased
same,"Baseline lung mechanical properties, such as static compliance",BALB/c mice; FIG. 3B,not altered
same,mucus-producing cells on PAS-stained lung sections,Muc5ac,No differences
same,Expression of Muc5ac in the lungs,Muc5ac; FIG. 4K,unchanged
